{"source": "PubChem BioAssay (NCI)", "assay_in_all_cases": "NCI-60 cell line screen, 48 h", "key": {"786-0 renal": {"tested_on": "786-0 renal"}, "A498 renal": {"tested_on": "A498 renal"}, "A549 NSCLC": {"tested_on": "A549 NSCLC"}, "ACHN renal": {"tested_on": "ACHN renal"}, "BT-549 breast": {"tested_on": "BT-549 breast"}, "CAKI-1 renal": {"tested_on": "CAKI-1 renal"}, "CCRF-CEM leukemia": {"tested_on": "CCRF-CEM leukemia"}, "COLO 205 colon": {"tested_on": "COLO 205 colon"}, "DU-145 prostate": {"tested_on": "DU-145 prostate"}, "EKVX NSCLC": {"tested_on": "EKVX NSCLC"}, "HCC-2998 colon": {"tested_on": "HCC-2998 colon"}, "HCT-116 colon": {"tested_on": "HCT-116 colon"}, "HCT-15 colon": {"tested_on": "HCT-15 colon"}, "HL-60(TB) leukemia": {"tested_on": "HL-60(TB) leukemia"}, "HOP-62 NSCLC": {"tested_on": "HOP-62 NSCLC"}, "HOP-92 NSCLC": {"tested_on": "HOP-92 NSCLC"}, "HS 578T breast": {"tested_on": "HS 578T breast"}, "HT29 colon": {"tested_on": "HT29 colon"}, "IGROV1 ovarian": {"tested_on": "IGROV1 ovarian"}, "K-562 leukemia": {"tested_on": "K-562 leukemia"}, "KM12 colon": {"tested_on": "KM12 colon"}, "LOX IMVI melanoma": {"tested_on": "LOX IMVI melanoma"}, "M14 melanoma": {"tested_on": "M14 melanoma"}, "MALME-3M melanoma": {"tested_on": "MALME-3M melanoma"}, "MCF7 breast": {"tested_on": "MCF7 breast"}, "MDA-MB-231 breast": {"tested_on": "MDA-MB-231 breast"}, "MDA-MB-435": {"tested_on": "MDA-MB-435"}, "MOLT-4 leukemia": {"tested_on": "MOLT-4 leukemia"}, "NCI-H226 lung": {"tested_on": "NCI-H226 lung"}}, "note": "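Five concentrations, 48 hours, 96-well plates. GI50 marks 50% less growth. Definition used: TGI = concentration required for complete inhibition of growth.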", "data": [{"smiles": "NCCOc1ncccc1/C=C1\\c2ccccc2-c2ccc(F)cc21", "values": [{"measurement": "GI50", "setting": "786-0 renal", "result": 575, "unit": "nM"}, {"measurement": "TGI", "setting": "786-0 renal", "result": 1940, "unit": "nM"}, {"measurement": "GI50", "setting": "A498 renal", "result": 1610, "unit": "nM"}, {"measurement": "TGI", "setting": "A498 renal", "result": 4770, "unit": "nM"}, {"measurement": "GI50", "setting": "A549 NSCLC", "result": 311, "unit": "nM"}, {"measurement": "TGI", "setting": "A549 NSCLC", "result": 1920, "unit": "nM"}, {"measurement": "GI50", "setting": "ACHN renal", "result": 349, "unit": "nM"}, {"measurement": "TGI", "setting": "ACHN renal", "result": 1370, "unit": "nM"}, {"measurement": "GI50", "setting": "BT-549 breast", "result": 1640, "unit": "nM"}, {"measurement": "TGI", "setting": "BT-549 breast", "result": 4480, "unit": "nM"}, {"measurement": "GI50", "setting": "CAKI-1 renal", "result": 461, "unit": "nM"}, {"measurement": "TGI", "setting": "CAKI-1 renal", "result": 2000, "unit": "nM"}, {"measurement": "GI50", "setting": "CCRF-CEM leukemia", "result": 316, "unit": "nM"}, {"measurement": "TGI", "setting": "CCRF-CEM leukemia", "result": 2390, "unit": "nM"}, {"measurement": "GI50", "setting": "COLO 205 colon", "result": 1050, "unit": "nM"}, {"measurement": "TGI", "setting": "COLO 205 colon", "result": 2310, "unit": "nM"}, {"measurement": "GI50", "setting": "DU-145 prostate", "result": 467, "unit": "nM"}, {"measurement": "TGI", "setting": "DU-145 prostate", "result": 1890, "unit": "nM"}, {"measurement": "GI50", "setting": "EKVX NSCLC", "result": 1350, "unit": "nM"}, {"measurement": "TGI", "setting": "EKVX NSCLC", "result": 3550, "unit": "nM"}, {"measurement": "GI50", "setting": "HCC-2998 colon", "result": 1340, "unit": "nM"}, {"measurement": "TGI", "setting": "HCC-2998 colon", "result": 2750, "unit": "nM"}, {"measurement": "GI50", "setting": "HCT-116 colon", "result": 703, "unit": "nM"}, {"measurement": "TGI", "setting": "HCT-116 colon", "result": 2120, "unit": "nM"}, {"measurement": "GI50", "setting": "HCT-15 colon", "result": 781, "unit": "nM"}, {"measurement": "TGI", "setting": "HCT-15 colon", "result": 2320, "unit": "nM"}, {"measurement": "GI50", "setting": "HL-60(TB) leukemia", "result": 340, "unit": "nM"}, {"measurement": "TGI", "setting": "HL-60(TB) leukemia", "result": 1300, "unit": "nM"}, {"measurement": "GI50", "setting": "HOP-62 NSCLC", "result": 446, "unit": "nM"}, {"measurement": "TGI", "setting": "HOP-62 NSCLC", "result": 1870, "unit": "nM"}, {"measurement": "GI50", "setting": "HOP-92 NSCLC", "result": 353, "unit": "nM"}, {"measurement": "TGI", "setting": "HOP-92 NSCLC", "result": 3190, "unit": "nM"}, {"measurement": "GI50", "setting": "HS 578T breast", "result": 1740, "unit": "nM"}, {"measurement": "TGI", "setting": "HS 578T breast", "result": 5020, "unit": "nM"}, {"measurement": "GI50", "setting": "HT29 colon", "result": 1190, "unit": "nM"}, {"measurement": "TGI", "setting": "HT29 colon", "result": 2800, "unit": "nM"}, {"measurement": "GI50", "setting": "IGROV1 ovarian", "result": 1160, "unit": "nM"}, {"measurement": "TGI", "setting": "IGROV1 ovarian", "result": 2470, "unit": "nM"}, {"measurement": "GI50", "setting": "K-562 leukemia", "result": 994, "unit": "nM"}, {"measurement": "TGI", "setting": "K-562 leukemia", "result": 3390, "unit": "nM"}, {"measurement": "GI50", "setting": "KM12 colon", "result": 1460, "unit": "nM"}, {"measurement": "TGI", "setting": "KM12 colon", "result": 2980, "unit": "nM"}, {"measurement": "GI50", "setting": "LOX IMVI melanoma", "result": 598, "unit": "nM"}, {"measurement": "TGI", "setting": "LOX IMVI melanoma", "result": 1980, "unit": "nM"}, {"measurement": "GI50", "setting": "M14 melanoma", "result": 739, "unit": "nM"}, {"measurement": "TGI", "setting": "M14 melanoma", "result": 2260, "unit": "nM"}, {"measurement": "GI50", "setting": "MALME-3M melanoma", "result": 1240, "unit": "nM"}, {"measurement": "TGI", "setting": "MALME-3M melanoma", "result": 2640, "unit": "nM"}, {"measurement": "GI50", "setting": "MCF7 breast", "result": 379, "unit": "nM"}, {"measurement": "TGI", "setting": "MCF7 breast", "result": 1680, "unit": "nM"}, {"measurement": "GI50", "setting": "MDA-MB-231 breast", "result": 1430, "unit": "nM"}, {"measurement": "TGI", "setting": "MDA-MB-231 breast", "result": 2940, "unit": "nM"}, {"measurement": "GI50", "setting": "MDA-MB-435", "result": 1550, "unit": "nM"}, {"measurement": "TGI", "setting": "MDA-MB-435", "result": 2980, "unit": "nM"}, {"measurement": "GI50", "setting": "MOLT-4 leukemia", "result": 282, "unit": "nM"}, {"measurement": "TGI", "setting": "MOLT-4 leukemia", "result": 1160, "unit": "nM"}, {"measurement": "GI50", "setting": "NCI-H226 lung", "result": 1000, "unit": "nM"}, {"measurement": "TGI", "setting": "NCI-H226 lung", "result": 2530, "unit": "nM"}]}]}
